In ChEMBL document CHEMBL3046049, “Protoporphyrinogen-IX Oxidase Inhibition by N-(2, 4, 5-Trisubstituted phenyl)-3, 4, 5, 6-tetrahydrophthalimides” (J Pestic Sci, 1997):

How the values were obtained:
Scenedesmus acutus = experiment: Inhibition of light-induced ethane formation in Scenedesmus acutus after 20 hr; type: functional, organism-based; settings: read-out: pI50 (converted)
[1] = target: T1, Protoporphyrinogen IX oxidase (Zea mays, UniProt Q9FYV8); experiment: Inhibition of protoporphyrinogen IX oxidase in Zea mays (maize) seed after 5 min by Dixon plot analysis; settings: read-out: pI50 (converted)
T1 sequence (Q9FYV8 whole entry): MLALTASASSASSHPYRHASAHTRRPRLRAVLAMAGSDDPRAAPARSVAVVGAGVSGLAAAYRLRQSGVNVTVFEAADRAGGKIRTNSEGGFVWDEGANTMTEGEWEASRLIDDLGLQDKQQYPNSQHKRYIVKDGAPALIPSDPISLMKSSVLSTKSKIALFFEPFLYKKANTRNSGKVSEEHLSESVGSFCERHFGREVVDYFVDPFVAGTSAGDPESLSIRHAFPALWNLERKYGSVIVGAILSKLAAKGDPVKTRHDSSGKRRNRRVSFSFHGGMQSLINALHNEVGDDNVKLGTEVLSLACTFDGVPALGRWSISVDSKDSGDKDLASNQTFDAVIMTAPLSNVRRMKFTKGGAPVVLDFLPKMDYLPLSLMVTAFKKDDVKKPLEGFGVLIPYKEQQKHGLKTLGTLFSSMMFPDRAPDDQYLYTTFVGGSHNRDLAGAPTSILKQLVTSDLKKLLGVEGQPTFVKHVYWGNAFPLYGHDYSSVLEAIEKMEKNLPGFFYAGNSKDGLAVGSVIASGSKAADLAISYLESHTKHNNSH

SMILES	IC50 (Scenedesmus acutus)	IC50 [1]
COC(=O)CSc1cc(/N=c2\sc(=O)n3n2CCCC3)c(F)cc1Cl [FLUTHIACETMETHYL]	955 nM	47.9 nM
CC(C)OC(=O)c1cc(N2C(=O)C3=C(CCCC3)C2=O)ccc1Cl	200 nM	1 nM
C#CC(C)Oc1cc(N2C(=O)C3=C(CCCC3)C2=O)c(F)cc1Cl (configuration not stated) [FLUMIPROPYN]	105 nM	1 nM
C#CCOc1cc(N2C(=O)C3=C(CCCC3)C2=O)ccc1Cl	501 nM	0.398 nM
CCCCCOC(=O)COc1cc(N2C(=O)C3=C(CCCC3)C2=O)c(F)cc1Cl [FLUMICIORAC-PENTYL]	–	1.1 nM
C#CCOc1cc(-n2nc3c(c2Cl)CCCC3)c(F)cc1Cl	–	1 nM
C#CCN1C(=O)COc2cc(F)c(N3C(=O)C4=C(CCCC4)C3=O)cc21 [FLUMIOXAZIN]	316 nM	–
O=C1C2=C(CCCC2)C(=O)N1c1ccc(Cl)cc1 [CHLOROPHTHALIUM]	1000 nM	25.1 nM
O=C1C2=C(CCCC2)C(=O)N1c1ccccc1F	10000 nM	2510 nM
CC(C)OC(=O)c1cc(N2C(=O)C3=C(CCCC3)C2=O)c(F)cc1Cl	79.4 nM	1.26 nM
CC(C)=C1OC(=O)N(c2cc(OC3CCCC3)c(Cl)cc2F)C1=O [PENTOXAZONE]	631 nM	5.25 nM
O=C1C2=C(CCCC2)C(=O)N1c1ccccc1	10000 nM	1580 nM
C#CCN1C(=O)COc2ccc(N3C(=O)C4=C(CCCC4)C3=O)cc21	631 nM	1 nM
O=C1C2=C(CCCC2)C(=O)N1c1ccc(Cl)cc1F	251 nM	3.98 nM
C#CCOc1cc(N2C(=O)C3=C(CCCC3)C2=O)c(F)cc1Cl	126 nM	2 nM
